Columns and labels:
orthotopic GBM model = test system: orthotopic GBM model; set-up: method as in PMID 28650650; details: compared with SI306; cited from earlier work
[1] = PAMPA assay, blood-brain barrier (BBB) membrane
Description: (§1) After being first dissolved in DMSO, the compounds were diluted 1:1 v/v using phosphate buffer (PBS 10 mM, pH 7.4). […] The gastrointestinal (GI) and blood–brain barrier (BBB) phospholipidic bilayers were mimicked by covering each well of the filter plate with either a 10%w/v CHCl3/dodecane brain polar lipid solution or a 1%w/v L-α-phosphatidylcholine solution (PC) in dodecane. After placing a DMSO/PBS 1:1v/v combination solution in the acceptor plate, the sandwich was gently shaken and incubated at room temperature for four hours. Samples were collected from the upper and bottom plates at the end time point, and the LC-UV/MS method was used for analysis. As previously reported, the apparent permeability (Papp cm/s × 10^−6) was quantified.

[2] = PAMPA assay, gastrointestinal (GI) membrane; format: in vitro ADME; details: four hours
Description: as §1

Row | Apparent permeability Papp ([1]; BBB PAMPA, room temperature, four hours) | Membrane retention MR ([1]; PAMPA, 4 h, pH 7.4) | Papp at 4 h ([2]; pH 7.4, room temperature, read-out: Apparent permeability Papp) | Membrane retention MR ([2]; room temperature) | SMILES | Efficacy in orthotopic GBM model (orthotopic GBM model)
1 |  |  |  |  | CN1CCN(CCOC(=O)N(c2cccc(Br)c2)c2nc(SCCN3CCOCC3)nc3c2cnn3CC(Cl)c2ccccc2)CC1 (centres unmarked) [SI306-PD1] | greater efficacy than SI306
2 | 17.16 ± 0.31 cm/s × 10^−6 | 10.73 ± 1.33% | 19.2 ± 0.37 ×10⁻⁶ cm/s | 8.89 ± 1.12% | CC(C)NCC(O)COc1cccc2ccccc12 (centres unmarked) [Propranolol, propranolol, reference compound] | 

— PMC12195707, “Evaluation of Antitumoral Activity in a 3D Cell Model of a Src Inhibitor Prodrug for Glioblastoma Treatment” (Pharmaceutics, 2025)
